“Also recorded” adds a separate entry of the source.
Target: T1, LeNCED1 (Solanum lycopersicum, UniProt O24023)
T1 construct: made in house; host or cells: E. coli Rosetta (DE3); crude cell-free extract
Assay: In vitro NCED enzyme assay (recombinant LeNCED1 cell-free extract, HPLC, 9′-cis-neoxanthin substrate)
Type: biochemical, tomato
Experimental: In vitro NCED enzyme assay—We over-expressed LeNCED1 in E. coli, as an N-terminal His6-fusion protein (supplemental methods). Cell-free extract containing recombinant LeNCED1 was prepared in 100 mM bis-tris buffer (pH 6.7). 15 μl extract was pre-activated by addition of iron(II) sulphate (20 mM, 1 μl) and ascorbic acid (20 mM, 1 μl) on ice for 2 min, prior to use. This aliquot of enzyme was then added to an assay (150 μl total volume) containing 100 mM bis-tris buffer (pH 6.7), 0.05% v/v Triton X-100, 1.0 mg/ml catalase, and 3 μg 9′-cis-neoxanthin. The 9′-cis-neoxanthin substrate was prepared as described in supplemental methods. The enzyme assay was incubated for 15 min in the dark at 20° C. Water (700 μl) was then added, and the products extracted with ethyl acetate (3×1 ml). The organic solvent was removed at reduced pressure, the residue was dissolved in methanol (200 μl), and then 100 μl was injected onto a Phenomenex C18 reverse phase HPLC column, and a gradient of 5-10% methanol in acetonitrile/0.05% triethylamine was applied at 0.5 ml/min over 20 min, detecting at 440 nm. NCED inhibition assays contained 1-100 μM inhibitor; inhibition was calculated from the product formation after 15 min, compared to a control assay with no inhibitor present.
For the production of cell-free extracts of LeCCD1a and LeNCED1, cultures were grown to an OD of 0.6 at 37° C., then isopropyl β-D-1-thiogalactopyranoside (IPTG) was added to 0.2 mM and the cultures grown overnight at 20° C. The cells (200 ml cultures) were harvested by centrifugation (5000 rpm, 10 min) and the pellet re-suspended in 4 ml PBS, 0.1% Triton-X 100. Lysozyme was added to a final concentration of 25 μg ml^−1 and the solution incubated at room temperature for 15 min before sonication (3×30 s at 18Ω) on ice. The lysate was then centrifuged (13000 rpm, 15 min, 4° C.) and the supernatant used for the assay.
Specificity of inhibition in vitro for tomato genes LeNCED1 and LeCCD1a—In order to screen the inhibitors against enzymes which cleave carotenoids at the 9,10 position, we used the recombinant tomato LeCCD1a protein (44), because this type of enzyme can be studied using an in vitro colourimetric assay with β-apo-8′-carotenal as substrate (37). To establish the specificity of the inhibitors, they were also tested against the tomato LeNCED1 recombinant protein which cleaves 9-cis carotenoids at the 11,12 position (45). For this enzyme, the cleavage reaction was monitored by C18 reverse phase HPLC, using 9′-cis-neoxanthin as substrate.

T1 sequence (O24023 17-605): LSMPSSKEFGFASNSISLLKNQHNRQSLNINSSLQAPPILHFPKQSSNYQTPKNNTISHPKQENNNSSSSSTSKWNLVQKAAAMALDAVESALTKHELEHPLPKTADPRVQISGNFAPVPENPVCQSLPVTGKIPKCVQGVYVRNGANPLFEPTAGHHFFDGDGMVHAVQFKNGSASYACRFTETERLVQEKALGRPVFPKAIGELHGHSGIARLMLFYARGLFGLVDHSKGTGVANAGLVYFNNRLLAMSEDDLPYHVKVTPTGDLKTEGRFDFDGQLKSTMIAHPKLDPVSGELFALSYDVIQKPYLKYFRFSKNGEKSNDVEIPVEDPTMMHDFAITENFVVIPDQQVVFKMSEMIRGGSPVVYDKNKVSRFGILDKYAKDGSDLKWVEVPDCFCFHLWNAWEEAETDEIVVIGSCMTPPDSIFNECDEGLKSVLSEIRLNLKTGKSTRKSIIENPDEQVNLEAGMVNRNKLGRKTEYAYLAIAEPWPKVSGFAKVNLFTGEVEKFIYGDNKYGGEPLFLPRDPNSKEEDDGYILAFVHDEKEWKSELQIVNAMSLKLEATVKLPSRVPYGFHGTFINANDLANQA

SMILES | inhibition of LeNCED1 in vitro (in words) | LeNCED1 (11,12) Inhibition @ 100 μM (%) (100 μM inhibitor, E. coli cell extract with recombinant CCD)
COc1ccc(C(=O)N(O)Cc2ccc(F)cc2)cc1 [Compound F2, N-(4-fluorobenzyl)-4-methoxybenzoyl hydroxamic acid] | little or no inhibition of LeNCED1 | –
COc1ccc(C(=O)N(O)Cc2ccccc2)cc1 [Compound F1, N-benzyl-4-methoxybenzoyl hydroxamic acid] | little or no inhibition of LeNCED1; also recorded: no inhibition of LeNCED 1 was detected | –
COc1ccc(C(=O)N(O)Cc2ccccc2)cc1OC [Compound F3, N-benzyl-3,4-dimethoxybenzoyl hydroxamic acid] | – | 2%

— patent publication US9210928B2, “Plant development control composition” (Syngenta Crop Protection, LLC, priority 2008, dated 2015)
